Values of other authors, collected in patent publication US7785578B2, “Non-invasive ocular drug delivery” (Aciont, Inc., priority 2002, dated 2010).

Conditions: following a 5 mg peribulbar injection; comparable to a high oral dose (approximately 7.5 mg)

- systemic levels in plasma: 60 ng/mL
SMILES: C[C@@H]1C[C@H]2[C@@H]3CCC4=CC(=O)C=C[C@]4(C)[C@@]3(F)[C@@H](O)C[C@]2(C)[C@@]1(O)C(=O)CO [dexamethasone]
